# According to PMC4544630, “Contribution of C-glucosidic ellagitannins to Lythrum salicaria L. influence on pro-inflammatory functions of human neutrophils” (Journal of Natural Medicines, 2014):
# Assays:
# MMP-9 = MMP-9 production by LPS-stimulated neutrophils (ELISA); format: cell-based, human; details: LPS 100 ng/mL, 24 h, % of stimulated control
# Source text: (§1) Peripheral venous blood was taken from healthy human donors (20–35 years old) in the Warsaw Blood Donation Centre. […] The study conformed to the principles of the Declaration of Helsinki. Neutrophils were isolated using a standard method of dextran sedimentation prior to hypotonic lysis of erythrocytes and to centrifugation in a Ficoll Hypaque gradient. The purity of neutrophil preparations was >97 %, and viability measured by trypan blue exclusion was >98 %. Neutrophils were then resuspended in appropriate medium to perform the selected assay.
# (§2) Neutrophils (2 × 10^5/mL) were cultured in 24-well plates in RPMI 1640 medium with 10 % FBS, 10 mM HEPES, and 2 mM L-glutamine in the absence or presence of LPS (100 ng/mL) for 24 h at 37 °C with 5 % CO2 in the absence or presence of extract at concentrations of 1, 5 and 20 μg/mL, and compounds at concentrations of 1, 5 and 20 μM were added to 1 mL of cell suspension 1 h before the stimuli. After 24 h, the neutrophils were harvested and centrifuged (2000 RPM; 10 min; 4 °C). The amount of IL-8 or MMP-9 released into cell supernatants was measured by enzyme-linked immunosorbent assay (ELISA) following the manufacturer’s instructions (R&D Systems, Minneapolis, MN, USA). PBS was used as a non-stimulated control. Curcumin was used as a positive control, according to Aggarwal and Harikumar and Antoine et al..
# IL-8 = IL-8 production by LPS-stimulated neutrophils (ELISA); format: cell-based, human; details: LPS 100 ng/mL, 24 h, % of stimulated control
# Source text: as §1, §2
# ROS [1] = experiment: ROS release from f-MLP-stimulated neutrophils, luminol chemiluminescence; format: cell-based, human; details: % of stimulated control
# Source text: as §1
# (§3) Generation of oxidants by f-MLP or PMA-stimulated neutrophils was measured using luminol- or lucigenin-dependent chemiluminescence tests. 70 μL of cell suspension (2 × 10^5/mL) in HBSS was incubated with 50 μL of compound or extract solution (final concentrations of 1, 5 and 20 μM or μg/mL) together with 50 μL of luminol (100 μM) or lucigenin (200 μM) solution. ROS production was initiated by the addition of 30 μL of f-MLP (0.1 μg/mL) or PMA (1 μg/mL). Changes in chemiluminescence at 37 °C were measured immediately for 45 min at intervals of 2 min in a microplate reader (Biotek). Ascorbic acid was used as a positive control.
# ROS [2] = experiment: ROS release from PMA-stimulated neutrophils, lucigenin chemiluminescence; format: cell-based, human; details: PMA + lucygenin, % of stimulated control
# Source text: as §1, §3
# MPO = MPO release from cytochalasin A/f-MLP-stimulated neutrophils (TMB substrate); format: cell-based, human; details: cytochalasin A/f-MLP, % of stimulated control
# Source text: Peripheral venous blood was taken from healthy human donors (20-35 years old) in the Warsaw Blood Donation Centre. […] The study conformed to the principles of the Declaration of Helsinki. Neutrophils were isolated using a standard method of dextran sedimentation prior to hypotonic lysis of erythrocytes and to centrifugation in a Ficoll Hypaque gradient. The purity of neutrophil preparations was >97 %, and viability measured by trypan blue exclusion was >98 %. Neutrophils were then resuspended in appropriate medium to perform the selected assay. Neutrophil MPO release was determined using TMB as a substrate. […] After centrifugation (2000 rpm; 10 min; 4 °C), 100 μL of supernatant was incubated with 50 μL of the TMB liquid substrate system. The reaction was terminated after 20 min by the addition of 2 M hydrochloric acid. The absorbance was measured at […] using a microplate reader (BioTek). Gallic acid was used as a positive control, according to Kroes et al..
# elastase = experiment: Elastase release from cytochalasin A/f-MLP-stimulated neutrophils (SAAVNA substrate); format: cell-based, human; details: % of stimulated control
# Source text: as §1
# Neutrophil elastase release was determined using SAAVNA as a substrate, and […] was measured spectrophotometrically. 100 μL of cell suspension (5 × 10^5/mL) in HBSS was preincubated with 50 μL of compound or extract solution (final concentrations of 1, 5 and 20 μM or μg/mL) for 15 min at 37 °C and then stimulated with 50 μL of cytochalasin A (5 μg/mL) and f-MLP (0.1 μg/mL) for 15 min. The neutrophils were centrifuged (2000 rpm; 10 min; 4 °C). After the addition of 50 μL of SAAVNA solution (1.6 mg/mL) to 100 μL of supernatant, the extent of […] was measured spectrophotometrically for 1 h at intervals of 20 min, at 412 nm using a microplate reader (BioTek). According to Kanashiro et al., quercetin was used as a positive control.
# [3] = molecular target: T1, bovine testis hyaluronidase (Bos taurus, UniProt Q2YDK3); experiment: Hyaluronidase activity, USP turbidimetric method modified; format: biochemical; details: for Hyaluronidase activity Mean(%): % of 100% active enzyme control
# T1 construct: purchased Sigma–Aldrich GmbH (Steinheim, Germany); host or cells: bovine testis
# T1 sequence (Q2YDK3 36-553): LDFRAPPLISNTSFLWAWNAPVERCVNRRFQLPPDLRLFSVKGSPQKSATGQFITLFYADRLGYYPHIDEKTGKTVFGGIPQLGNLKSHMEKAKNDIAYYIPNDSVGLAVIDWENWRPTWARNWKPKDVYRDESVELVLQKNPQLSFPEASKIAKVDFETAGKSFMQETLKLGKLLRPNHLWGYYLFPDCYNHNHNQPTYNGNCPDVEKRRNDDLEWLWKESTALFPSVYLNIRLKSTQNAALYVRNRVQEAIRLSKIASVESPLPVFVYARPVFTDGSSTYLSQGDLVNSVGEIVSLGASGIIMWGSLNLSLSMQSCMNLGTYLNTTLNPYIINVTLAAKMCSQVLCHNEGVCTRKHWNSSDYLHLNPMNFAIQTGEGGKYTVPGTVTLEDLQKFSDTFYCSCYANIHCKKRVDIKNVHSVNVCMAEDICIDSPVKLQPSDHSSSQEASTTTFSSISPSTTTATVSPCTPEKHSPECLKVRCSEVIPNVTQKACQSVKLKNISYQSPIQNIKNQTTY
# Source text: The […] flowering herb was collected from its natural habitat in Umer in the Świętokrzyskie region (Poland) in July 2011. Its identity was confirmed anatomically and morphologically based on its pharmacopoeial monograph in the Department of Pharmacognosy and Molecular Basis of Phytotherapy, Medical University of Warsaw, where the voucher specimen UMER2011 is deposited. […] […]), castalagin ([…] (SB) and […]. 1, 2) from […] performed according to Piwowarski and Kiss. […] Isolated ellagitannins were of >95 % purity (determined by the HPLC-DAD-CAD method). […] Gallic acid (>96 % purity) was purchased from ChromaDex (Santa Ana, USA). Propidium iodide was purchased from BD Biosciences (San Diego, CA, USA). All substances used were of >95 % purity. Phosphate-buffered saline (PBS) was purchased from Gibco (Carlsbad, CA, USA). The influence of extract and ellagitannins on hyaluronidase activity was measured using the USP turbidimetric method modified by Piwowarski et al. […] Heparin was used as a positive control.
Compound,MMP-9 production Mean (%) (MMP-9; 1 μM),MMP-9 production Mean (%) (MMP-9; 5 μM),MMP-9 production Mean (%) (MMP-9; 20 μM),IL-8 production Mean (%) (IL-8; 1 μM),IL-8 production Mean (%) (IL-8; 5 μM),IL-8 production Mean (%) (IL-8; 20 μM),ROS release Mean(%) (ROS [1]; 1 μM),ROS release Mean(%) (ROS [1]; 5 μM),ROS release Mean(%) (ROS [1]; 20 μM),ROS release Mean(%) (ROS [2]; 1 μM),ROS release Mean(%) (ROS [2]; 5 μM),ROS release Mean(%) (ROS [2]; 20 μM),MPO release Mean(%) (MPO; 1 μM),MPO release Mean(%) (MPO; 5 μM),MPO release Mean(%) (MPO; 20 μM),Elastase release Mean(%) (elastase; 1 μM),Elastase release Mean(%) (elastase; 5 μM),Elastase release Mean(%) (elastase; 20 μM),further results
"COc1cc(/C=C/C(=O)CC(=O)/C=C/c2ccc(O)c(OC)c2)ccc1O [Cur, curcumin, reference compound]","100,14%","64,26%","39,26%","112,66%","58,75%","26,70%",–,–,–,–,–,–,–,–,–,–,–,–,–
"O=C(OC1COC(=O)c2cc(O)c(O)c(O)c2-c2c(cc(O)c(O)c2O)C(=O)OC1C1OC(=O)c2cc(O)c(O)c(O)c2-c2c(O)c(O)c(O)c3c2C(=O)OC1C3O)c1cc(O)c(O)c(O)c1Oc1cc2c(c(O)c1O)-c1c(cc(O)c(O)c1O)C(=O)OCC1OC(=O)c3cc(O)c(O)c(O)c3-c3c(O)c(O)c(O)c4c3C(=O)OC(C1OC2=O)C1OC(=O)c2c-4c(O)c(O)c(O)c2C1O (centres unmarked) [SC, salicarinin C]","97,74%","92,17%","86,61%","77,70%","78,29%","56,68%","63,16%","34,71%","18,92%","66,62%","34,56%","7,37%","66,67%","52,85%","5,95%","85,10%","80,91%","50,60%","IC50 [3]: 2500 ± 200 nM; Hyaluronidase activity Mean(%) ([3]; 1 μM): 81,82%; Hyaluronidase activity Mean(%) ([3]; 2 μM): 57,68%; Hyaluronidase activity Mean(%) ([3]; 5 μM): 8,00%; Hyaluronidase activity Mean(%) ([3]; 20 μM): 0,50%"
"O=C(O)c1cc(O)c(O)c(O)c1 [gal, Gallic acid, reference compound]",–,–,–,–,–,–,–,–,–,–,–,–,"85,62%","58,97%","18,88%",–,–,–,–
"O=C(OC1COC(=O)c2cc(O)c(O)c(O)c2-c2c(cc(O)c(O)c2O)C(=O)OC1C1OC(=O)c2cc(O)c(O)c(O)c2-c2c(O)c(O)c(O)c3c2C(=O)OC1C3O)c1cc(O)c(O)c(O)c1Oc1cc2c(c(O)c1O)-c1c(cc(O)c(O)c1O)C(=O)OCC1OC(=O)c3cc(O)c(O)c(O)c3-c3c(O)c(O)c(O)c4c3C(=O)OC(C1OC2=O)C1OC(=O)c2c-4c(O)c(O)c(O)c2C1O (centres unmarked) [SA, salicarinin A]","100,80%","92,00%","96,35%","89,82%","81,38%","79,80%","54,14%","27,84%","19,49%","66,68%","44,80%","14,59%","61,96%","31,79%","1,52%","80,47%","63,45%","42,22%","IC50 [3]: 1600 ± 100 nM; Hyaluronidase activity Mean(%) ([3]; 1 μM): 75,50%; Hyaluronidase activity Mean(%) ([3]; 2 μM): 35,96%; Hyaluronidase activity Mean(%) ([3]; 5 μM): 0,50%; Hyaluronidase activity Mean(%) ([3]; 20 μM): 1,13%"
"O=C1O[C@H]([C@@H](O)CO)C(O)=C1O [VitC, ascorbic acid, reference compound]",–,–,–,–,–,–,"91,10%","79,14%","61,91%","93,99%","94,53%","85,15%",–,–,–,–,–,–,–
"O=c1c(O)c(-c2ccc(O)c(O)c2)oc2cc(O)cc(O)c12 [Q, quercetin, reference compound]",–,–,–,–,–,–,–,–,–,–,–,–,–,–,–,"104,09%","78,40%","55,22%",–
Heparin [reference compound],–,–,–,–,–,–,–,–,–,–,–,–,–,–,–,–,–,–,"Hyaluronidase activity Mean(%) ([3]; 1 μg/mL): 100,00%; Hyaluronidase activity Mean(%) ([3]; 2 μg/mL): 96,35%; Hyaluronidase activity Mean(%) ([3]; 5 μg/mL): 89,89%; Hyaluronidase activity Mean(%) ([3]; 20 μg/mL): 82,73%"
